The source made the active and inactive calls. No cut-off for these calls is given here.

The test system of data set [1] is Rattus norvegicus. The experiment in a line: Neuromuscular blocking in Sprague-Dawley rat assessed as inhibition of electrical stimulation induced twitch amplitude at 0.8 mg/kg, iv. The format is functional, organism-based.
For data set [2], the species on record is Rattus norvegicus. The experiment in a line: Neuromuscular blocking in Sprague-Dawley rat assessed as inhibition of electrical stimulation induced twitch amplitude. The format is functional.
Data set [3] can be described thus: Solubility of compound in Na2HPO4/NaH2PO4 buffer. The format is physicochemical.
In data set [4] the test system is Rattus norvegicus. The experiment in a line: Neuromuscular blocking in Sprague-Dawley rat assessed as duration time to TOF ratio of 0.25 recovery at 1.6 mg/kg, iv. The format is functional.
Data set [5] is described as follows: Toxicity in Sprague-Dawley rat at 9 mg/kg, iv measured after 1 hr. The format is organism-based. The settings on record: in vivo.
Data set [6] deals with Rattus norvegicus. The experiment in a line: Neuromuscular blocking in Sprague-Dawley rat assessed as duration time to TOF ratio of 0.25 recovery at 2.4 mg/kg, iv. The format is functional.
Data set [7] has as its system Erythrocyte. The experiment in a line: Hemolysis in rat RBC. It is filed as toxicity, cell-based.
The subject of the next data set is L02. The experiment in a line: Cytotoxicity against L02 cells at 512 ug/ml incubated for 24 hrs by CCK8 assay. The format is toxicity, cell-based. The settings on record: human, l02, 24 h, dose 512 µg/ml.
Another data set relates to H9c2. The experiment in a line: Cytotoxicity against rat H9C2 cells at 512 ug/ml incubated for 24 hrs by CCK8 assay. The format is toxicity, cell-based. The settings on record: h9c2, 24 h, dose 512 µg/ml. In general terms: Tetrazolium dyes change colour on reduction, which living cells bring about.
Data set [8] concerns Erythrocyte. The experiment in a line: Hemolysis in human RBC. It is filed as toxicity, cell-based.
Data set [9] deals with Rattus norvegicus. The experiment in a line: Reversal of 2,27-dioxa-11,18,36,43-tetraza-8,21,33,46-tetrazoniaundecacyclo[46.2.2.23,6.213,16.223,26.228,31.238,41.18,11.118,21.133,36.143,46]hexahexaconta-1(50),3,5,8(64),9,13(63),14,16(62),19,21(61),23,25,28,30,33(56),34,38,40,44,46(53),48,51,54,57,59,65-hexacosaene tetrachloride induced neuromuscular block in Sprague-Dawley rat assessed as recovery time at 20 mg/kg, iv. The format is functional.

Data set [10] is described as follows: Solubility of compound in phosphate buffer. The format is physicochemical.
Data set [11] deals with Rattus norvegicus. The experiment in a line: Reversal of 2,27-dioxa-11,18,36,43-tetraza-8,21,33,46-tetrazoniaundecacyclo[46.2.2.23,6.213,16.223,26.228,31.238,41.18,11.118,21.133,36.143,46]hexahexaconta-1(50),3,5,8(64),9,13(63),14,16(62),19,21(61),23,25,28,30,33(56),34,38,40,44,46(53),48,51,54,57,59,65-hexacosaene tetrachloride induced neuromuscular block in Sprague-Dawley rat assessed as recovery time at 2.5 mg/kg, iv. The format is functional.

Data set [12] deals with Rattus norvegicus. The experiment in a line: Reversal of 2,27-dioxa-11,18,36,43-tetraza-8,21,33,46-tetrazoniaundecacyclo[46.2.2.23,6.213,16.223,26.228,31.238,41.18,11.118,21.133,36.143,46]hexahexaconta-1(50),3,5,8(64),9,13(63),14,16(62),19,21(61),23,25,28,30,33(56),34,38,40,44,46(53),48,51,54,57,59,65-hexacosaene tetrachloride induced neuromuscular block in Sprague-Dawley rat assessed as recovery time at 10 mg/kg, iv. It is filed as functional.

In data set [13] the test system is Rattus norvegicus. The experiment in a line: Neuromuscular blocking in Sprague-Dawley rat assessed as duration time to TOF ratio of 0.25 recovery at 3.5 mg/kg, iv. The format is functional.
For data set [14], the system named is Rattus norvegicus. The experiment in a line: Reversal of 2,27-dioxa-11,18,36,43-tetraza-8,21,33,46-tetrazoniaundecacyclo[46.2.2.23,6.213,16.223,26.228,31.238,41.18,11.118,21.133,36.143,46]hexahexaconta-1(50),3,5,8(64),9,13(63),14,16(62),19,21(61),23,25,28,30,33(56),34,38,40,44,46(53),48,51,54,57,59,65-hexacosaene tetrachloride induced neuromuscular block in Sprague-Dawley rat assessed as recovery time at 0.36 mg/kg, iv. It is filed as functional.

Data set [15] can be described thus: Toxicity in ICR mouse assessed as maximal tolerated dose. The note with it: in vivo.
Data set [16] in a line: Toxicity in ICR mouse assessed as heart abnormality at 200 to 400 mg/kg after 14 days by H and E staining based optical microscopic analysis. It is filed as organism-based. The note with it: in vivo, 336 h, dose 200-400 mg/kg, time 14 day.
A short description of data set [17]: Toxicity in ICR mouse assessed as lung abnormality at 200 to 400 mg/kg after 14 days by H and E staining based optical microscopic analysis. It is filed as organism-based. The note with it: in vivo, 336 h, dose 200-400 mg/kg, time 14 day.
A short description of data set [18]: Toxicity in ICR mouse assessed as kidney abnormality at 200 to 400 mg/kg after 14 days by H and E staining based optical microscopic analysis. The note with it: in vivo, 336 h, dose 200-400 mg/kg, time 14 day. The format is organism-based.
For data set [19], the system named is Rattus norvegicus. The experiment in a line: Reversal of 2,27-dioxa-11,18,36,43-tetraza-8,21,33,46-tetrazoniaundecacyclo[46.2.2.23,6.213,16.223,26.228,31.238,41.18,11.118,21.133,36.143,46]hexahexaconta-1(50),3,5,8(64),9,13(63),14,16(62),19,21(61),23,25,28,30,33(56),34,38,40,44,46(53),48,51,54,57,59,65-hexacosaene tetrachloride induced neuromuscular block in Sprague-Dawley rat assessed as recovery time at 50 mg/kg, iv after 1 min. The format is functional.

The nature of data set [20]: Toxicity in ICR mouse assessed as liver abnormality at 200 to 400 mg/kg after 14 days by H and E staining based optical microscopic analysis. The note with it: in vivo, 336 h, dose 200-400 mg/kg, time 14 day. The format is organism-based.
Data set [21] in a line: Toxicity in ICR mouse assessed as spleen abnormality at 200 to 400 mg/kg after 14 days by H and E staining based optical microscopic analysis. It is filed as organism-based. The settings on record: in vivo, 336 h, dose 200-400 mg/kg, time 14 day.
A short description of data set [22]: Toxicity in ICR mouse assessed as weight loss at 400 mg/kg, iv measured after 1 day. The format is organism-based. The note with it: in vivo, 24 h.

`c1cc2ccc1Cn1cc[n+](c1)Cc1ccc(cc1)C[n+]1ccn(c1)Cc1ccc(cc1)O2`: in the data set with Rattus norvegicus [1], the outcome was inactive.
Regarding `c1ccc(C[n+]2ccn(Cc3ccc(Oc4ccc(Cn5cc[n+](Cc6ccccc6)c5)cc4)cc3)c2)cc1`, the outcome in the data set on Rattus norvegicus [1] was inactive.
By solubility is commonly meant the dissolved amount per volume that the medium holds. High values mean a readily soluble substance, low ones a poorly soluble substance. With `[Cl-].[Cl-].[Cl-].[Cl-].c1cc2ccc1Cc1ccc(cc1)C[n+]1ccn(c1)Cc1ccc(cc1)Cn1cc[n+](c1)Cc1ccc(cc1)Cc1ccc(cc1)C[n+]1ccn(c1)Cc1ccc(cc1)Cn1cc[n+](c1)C2`, the outcome in the data set with Rattus norvegicus [1] was inactive. Further, the ED90 in the data set listed under Rattus norvegicus [2] came out at 1.16 mg/kg. Also, in data set [3], the solubility was determined as 58 mg/mL.
`[Cl-].[Cl-].[Cl-].[Cl-].c1cc2ccc1Cn1cc[n+](c1)Cc1ccc(cc1)Oc1ccc(cc1)C[n+]1ccn(c1)Cc1ccc(cc1)Cn1cc[n+](c1)Cc1ccc(cc1)Oc1ccc(cc1)C[n+]1ccn(c1)C2`: the values for the Time in the data set on Rattus norvegicus [4] and with Rattus norvegicus [6] were 1785 s and 4965 s, respectively. Besides, the Activity entry (in data set [5]; with Erythrocyte [7]; with L02; in the data set on H9c2; in the data set with Erythrocyte [8]) was “Non-Toxic” throughout. Besides, the ED90 in the data set listed under Rattus norvegicus [2] worked out at 0.8 mg/kg. For the same molecule, the solubility in [3] amounted to 78 mg/mL.
In the case of `O=C(O)CCSC[C@H]1O[C@@H]2O[C@H]3[C@H](O)[C@@H](O)[C@@H](O[C@H]4[C@H](O)[C@@H](O)[C@@H](O[C@H]5[C@H](O)[C@@H](O)[C@@H](O[C@H]6[C@H](O)[C@@H](O)[C@@H](O[C@H]7[C@H](O)[C@@H](O)[C@@H](O[C@H]8[C@H](O)[C@@H](O)[C@@H](O[C@H]9[C@H](O)[C@@H](O)[C@@H](O[C@H]1[C@H](O)[C@H]2O)O[C@@H]9CSCCC(=O)O)O[C@@H]8CSCCC(=O)O)O[C@@H]7CSCCC(=O)O)O[C@@H]6CSCCC(=O)O)O[C@@H]5CSCCC(=O)O)O[C@@H]4CSCCC(=O)O)O[C@@H]3CSCCC(=O)O`, the Time with Rattus norvegicus [9] is given as 1175 s.
Take `C[C@]12N3Cc4c(OCCCC(=O)[O-])ccc(OCCCC(=O)[O-])c4CN1C(=O)N1CN4C(=O)N5CN6C(=O)N7CN8C(=O)N9Cc%10c(OCCCC(=O)[O-])ccc(OCCCC(=O)[O-])c%10CN%10C(=O)N(CN%11C(=O)N(CN%12C(=O)N(CN(C3=O)[C@]12C)[C@@H]4[C@H]%125)[C@@H]6[C@H]%117)[C@]8(C)[C@@]9%10C.[Na+].[Na+].[Na+].[Na+]`: in [10], the solubility was 549 mg/mL. The Time in the data set on Rattus norvegicus [11] was determined as 411 s; with Rattus norvegicus [12], 18 s.
For `Cc1c(C)c(OCCCC(=O)[O-])c2c(c1OCCCC(=O)[O-])CN1C(=O)N3CN4C(=O)N5CN6C(=O)N7CN8C(=O)N9Cc%10c(c(OCCCC(=O)[O-])c(C)c(C)c%10OCCCC(=O)[O-])CN%10C(=O)N(CN%11C(=O)N(CN%12C(=O)N(CN%13C(=O)N(C2)[C@]1(C)[C@]%133C)[C@@H]4[C@@H]5%12)[C@@H]6[C@@H]7%11)[C@]8(C)[C@]%109C.[Na+].[Na+].[Na+].[Na+]` the same measures were 400 mg/mL, 259 s and 16 s.
In the case of `COc1ccc(Cn2cc[n+](Cc3ccc(C[n+]4ccn(Cc5ccc(OC)cc5)c4)cc3)c2)cc1`, the outcome in the data set with Rattus norvegicus [1] was inactive.
`C=CC[N+]1([C@H]2C[C@H]3[C@@H]4CC[C@H]5C[C@H](O)[C@@H](N6CCOCC6)C[C@]5(C)[C@H]4CC[C@]3(C)[C@H]2OC(C)=O)CCCC1` [ROCURONIUM]: the Time with Rattus norvegicus [13] came out at 497 s.
Consider `CN(C)C(=O)Oc1cccc([N+](C)(C)C)c1` [NEOSTIGMINE], for which the Time with Rattus norvegicus [14] was determined as 694 s.
On to `c1cc2ccc1C[n+]1ccc(cc1)-c1cc[n+](cc1)Cc1ccc(cc1)C[n+]1ccc(cc1)-c1cc[n+](cc1)C2`, for which the outcome in the data set on Rattus norvegicus [1] was inactive.
In the case of `C[C@]12N3Cc4c(c(OCCCS(=O)(=O)[O-])c5ccccc5c4OCCCS(=O)(=O)[O-])CN1C(=O)N1CN4C(=O)N5CN6C(=O)N7CN8C(=O)N9Cc%10c(c(OCCCS(=O)(=O)[O-])c%11ccccc%11c%10OCCCS(=O)(=O)[O-])CN%10C(=O)N(CN%11C(=O)N(CN%12C(=O)N(CN(C3=O)[C@]12C)[C@@H]4[C@H]%125)[C@@H]6[C@H]%117)[C@]8(C)[C@@]9%10C.[Na+].[Na+].[Na+].[Na+]`, the solubility in data set [10] stood at 29.5 mg/mL. Also, the values for the Time in the data set with Rattus norvegicus [11] and in the data set on Rattus norvegicus [12] were 215 s and 18 s, respectively.
Take `[Cl-].[Cl-].[Cl-].[Cl-].c1cc2ccc1Cn1cc[n+](c1)Cc1ccc(cc1)-c1ccc(cc1)C[n+]1ccn(c1)Cc1ccc(cc1)Cn1cc[n+](c1)Cc1ccc(cc1)-c1ccc(cc1)C[n+]1ccn(c1)C2`: the outcome with Rattus norvegicus [1] was inactive. Moreover, the ED90 in the data set listed under Rattus norvegicus [2] is 1.07 mg/kg. In addition, in [3], the solubility came out at 21 mg/mL.
What is called MTD is the largest dose that counted as tolerated. For `C[C@]12N3Cc4c(c(OCCCC(=O)[O-])c5ccccc5c4OCCCC(=O)[O-])CN1C(=O)N1CN4C(=O)N5CN6C(=O)N7CN8C(=O)N9Cc%10c(c(OCCCC(=O)[O-])c%11ccccc%11c%10OCCCC(=O)[O-])CN%10C(=O)N(CN%11C(=O)N(CN%12C(=O)N(CN(C3=O)[C@]12C)[C@@H]4[C@H]%125)[C@@H]6[C@H]%117)[C@]8(C)[C@@]9%10C.[Na+].[Na+].[Na+].[Na+]`, the MTD in data set [15] is 550 mg/kg. Further, the Activity result is recorded as “Non-Toxic” in [16]; “Non-Toxic” in data set [17]; “Non-Toxic” in the data set on Erythrocyte [7]; “Non-Toxic” in data set [18]; 100% in the data set with Rattus norvegicus [19]; “Non-Toxic” in [20]. Moreover, the Activity result in data set [21] is “Non-Toxic”; in the data set with L02, “Non-Toxic”; in the data set with H9c2, “Non-Toxic”; with Erythrocyte [8], “Non-Toxic”; in data set [22], “Toxic”. The Time in the data set on Rattus norvegicus [9] was found to be 17 s; with Rattus norvegicus [11] it was 205 s; with Rattus norvegicus [12] it was 16 s. The molecule further returned a solubility in data set [10] of 293 mg/mL.
